Data published in patent US20260224554A1, “OBEFAZIMOD FOR TREATMENT OF ULCERATIVE COLITIS” (ABIVAX, priority 2023, published 2026).

Test system: subjects with Moderate to Severe Active Ulcerative Colitis
Experiment: Follow-up Phase II open-label long-term study of ABX464 25 mg QD (ABX464-108), interim analysis
Type: in vivo, human
Description: • The primary objective of the study is to evaluate the long-term safety of ABX464 given at 25 mg once daily in subjects with Moderate to Severe Active Ulcerative Colitis • Number of Adverse Events (AEs) in ABX464 treated subjects
The secondary objectives are: • To evaluate the long-term effect of ABX464 on clinical remission; • Percentage of subjects reaching clinical remission at yearly visits. • To evaluate the long-term effect of ABX464 on endoscopic remission; • Percentage of subjects reaching endoscopic remission at yearly visits. • To evaluate the long-term effect of ABX464 on clinical response; • Percentage of subjects reaching clinical response at yearly visits. • To evaluate the long-term effect of ABX464 on endoscopic improvement; • Percentage of subjects reaching endoscopic improvement at yearly visits. • To evaluate the long-term effect of ABX464 on inflammatory markers (C-reactive protein (CRP), calprotectin); • The change from Baseline in CRP and fecal calprotectin levels. • To evaluate the safety profile of ABX464; • Number and rate of all AEs and causally-related AEs, all Serious Adverse Events (SAEs) and causally-related SAEs, all AEs of Special Interest (AESIs) and causally-related AESIs, classified by severity; • Incidence of AEs leading to investigational medicinal product discontinuation; • The number of clinically-significant laboratory abnormalities. • To evaluate the effect of ABX464 on miR-124 expression in total blood at every timepoint defined in the schedule of assessment. • Change relative to baseline in miRNA-124 expression in total blood at every defined timepoint.
For the purpose of the study, the following definitions will be applied: • Clinical remission based on the Mayo Scoring system, is defined as stool frequency subscore=0 or 1 and rectal bleeding subscore=0 and endoscopy subscore=0 or 1 (modified to exclude friability). • Clinical Response is defined as a reduction from baseline in modified Mayo Score of at least 2 points and greater than or equal to 30 percent from baseline with an accompanying decrease in rectal bleeding sub-score of greater than or equal to 1 point or absolute rectal bleeding sub-score of less than or equal to 1 point. • Endoscopic remission defined as a Mayo endoscopic sub score of 0. • Endoscopic improvement is defined as a Mayo endoscopic sub score of ≤1 (excluding friability).
This study is an open-label study aiming at evaluating the long-term safety and the efficacy profile of ABX464 given once a day (QD) at 25 mg in subjects who have been previously enrolled in the ABX464-102 or ABX464-104 studies (OLE and maintenance studies) and who are willing to continue their treatment.
All subjects will receive ABX464 given at 25 mg QD.
Subjects will be treated with ABX464 for a maximum period of 54 months. Subjects will be followed up quarterly. After the treatment period, subjects will be followed for 4 additional weeks for safety purposes.
A subject will be eligible to participate in this study if ALL the following criteria are met: • 1. Subjects who previously completed the ABX464-102 or ABX464-104 clinical studies; • 2. Subjects should be in endoscopic improvement with a rectal bleeding sub-score=0 point at the end of treatment period in the previous study (ABX464-102 or ABX464-104). Endoscopic improvement is defined as: a Mayo endoscopic sub score of ≤1; • 3. Subjects able and willing to comply with study visits and procedures; • 4. […]

With `FC(F)(F)Oc1ccc(Nc2ccc3cccc(Cl)c3n2)cc1` [Obefazimod, 8-chloro-N-[4-(trifluoromethoxy)phenyl]quinolin-2-amine] the “Durability of efficacy (MMS evaluation)” value (25 mg QD in patients who achieved endoscopic improvement after 2-4 years of exposure to 50 mg) was “continues to have durable efficacy”, the “Proportion of patients with Fecal Calprotectin <250 microgm/gm” value (63 patients who completed 48-week treatment with 25 mg QD) was 93% and the “Disease control Rate (Stable+improved MMS)” value (63 patients who completed 48-week treatment with 25 mg QD, after 2-4 years of 50 mg in ABX464-102/-104) was 84.1%. For the same compound, the New safety signals (UC patients treated for up to 5 years) was “no new safety signals” and the “Patients withdrawn due to AE” value (of 74 patients analyzed, 48-week treatment with 25 mg QD) was 2 patients.
